Structures are written as SMILES.

The values below come from US10858366B2 (priority 2016, dated 2020).

The experiment deals with RNP_CAL (PB2, PB1, PA, NP, influenza A Luciferase reporter in 293T cells) (Influenza A virus (strain swl A/California/04/2009 H1N1), UniProt C3W5S0). Briefly: cell-based.
For the compound `CCc1cnc2n1C[C@H](C(c1ccccc1)c1ccccc1)n1ccc(=O)c(O)c1-2` [Example 9, (S)-6-benzhydryl-3-ethyl-11-hydroxy-5H-imidazo[1,2-a]pyrido[2,1-c]pyrazin-10(6H)-one], the EC50 (usually the midpoint of the concentration-response curve) amounted to 580 nM.

As to `O=c1cnn2c(c1O)-c1nccn1CC2C(c1ccc(Cl)cc1)c1ccc(Cl)cc1` (stereo not shown) [Example 10, 6-(bis(4-chlorophenyl)methyl)-11-hydroxy-5H-imidazo[2′,1′:3,4]pyrazino[1,2-b]pyridazin-10(6H)-one], the EC50 came out at 320 nM.

As to `O=c1cnn2c(c1O)-c1nccn1CC2C(c1cccc(Cl)c1)c1cccc(Cl)c1` (stereo not shown) [Example 11, 6-(bis(3-chlorophenyl)methyl)-11-hydroxy-5H-imidazo[2′,1′:3,4]pyrazino[1,2-b]pyridazin-10(6H)-one], it took 80 nM to reach a half-maximal effect (EC50).

`O=c1cnn2c(c1O)-c1nccn1CC2C(c1ccc(F)cc1)c1ccc(F)cc1` (stereo not shown) [Example 12, 6-(bis(4-fluorophenyl)methyl)-11-hydroxy-5H-imidazo[2′,1′:3,4]pyrazino[1,2-b]pyridazin-10(6H)-one] had a 50% effective concentration (EC50) of 800 nM.

In turn, `Cc1cnc2n1C[C@H](C(c1ccccc1)c1ccccc1)n1ccc(=O)c(O)c1-2` [Example 13, (S)-6-benzhydryl-11-hydroxy-3-methyl-5H-imidazo[1,2-a]pyrido[2,1-c]pyrazin-10(6H)-one] registered an EC50 of 310 nM.

As for `O=c1cnn2c(c1O)-c1nccn1C[C@@H]2C(c1cccc(Cl)c1)c1cccc(Cl)c1` [Example 15, (S)-6-(bis(3-chlorophenyl)methyl)-11-hydroxy-5H-imidazo [2′,1′:3,4] pyrazino [1,2-b]pyridazin-10(6H)-one], a half-maximal response (EC50) required 25 nM.

The compound `O=c1cnn2c(c1O)-c1nccn1C[C@H]2C(c1cccc(Cl)c1)c1cccc(Cl)c1` [Example 16, (R)-6-(bis(3-chlorophenyl)methyl)-11-hydroxy-5H-imidazo[2′,1′:3,4] pyrazino [1,2-b]pyridazin-10(6H)-one] had an EC50 of 820 nM.

In turn, `O=c1cnn2c(c1O)-c1nccn1C[C@@H]2[C@@H](c1ccc(F)cc1)c1cccc(C(F)(F)F)c1` [Example 21, (S)-6-((S)-(4-fluorophenyl)(3-(trifluoromethyl)phenyl)methyl)-11-hydroxy-5,6-dihydro-10H-imidazo[2′,1′:3,4]pyrazino[1,2-b]pyridazin-10-one] registered an EC50 of 52 nM.

On to `O=c1cnn2c(c1O)-c1nccn1C[C@@H]2C(c1ccc(F)cc1)c1ccc(F)cc1` [Example 22, (S)-6-(bis(4-fluorophenyl)methyl)-11-hydroxy-5,6-dihydro-10H-imidazo[2′,1′:3,4]pyrazino[1,2-b]pyridazin-10-one], for which the EC50 was 82 nM.

Take `O=c1cnn2c(c1O)-c1nccn1C[C@@H]2[C@@H](c1ccc(F)cc1)c1ccc(F)c(F)c1` [Example 25, (S)-6-((S)-(3,4-difluorophenyl)(4-fluorophenyl)methyl)-11-hydroxy-5H-imidazo[2′,1′:3,4]pyrazino[1,2-b]pyridazin-10(6H)-one]: the EC50 is 56 nM.

`O=c1cnn2c(c1O)-c1nccn1C[C@@H]2[C@H](c1ccc(F)cc1)c1cccc(F)c1` [Example 26, (S)-6-((R)-(3-fluorophenyl)(4-fluorophenyl)methyl)-11-hydroxy-5,6-dihydro-10H-imidazo[2′,1′:3,4]pyrazino[1,2-b]pyridazin-10-one] gave an EC50 of 38 nM.

Compound `Cc1cc(F)ccc1[C@H](c1ccc(F)cc1)[C@H]1Cn2ccnc2-c2c(O)c(=O)cnn21` [Example 27, (S)-6-((S)-(4-fluoro-2-methylphenyl)(4-fluorophenyl)methyl)-11-hydroxy-5,6-dihydro-10H-imidazo[2′,1′:3,4]pyrazino[1,2-b]pyridazin-10-one] showed an EC50 of 50 nM.

`CSc1cccc([C@H](c2ccc(F)cc2)[C@H]2Cn3ccnc3-c3c(O)c(=O)cnn32)c1` [Example 28, (S)-6-((S)-(4-fluorophenyl)(3-(methylthio)phenyl)methyl)-11-hydroxy-5,6-dihydro-10H-imidazo[2′,1′:3,4]pyrazino[1,2-b]pyridazin-10-one]: a half-maximal effect (EC50) was put at 81 nM.

Consider `O=c1cnn2c(c1O)-c1nccn1C[C@@H]2[C@@H](c1ccc(F)cc1)c1ccccc1Cl` [Example 29, (S)-6-((S)-(2-chlorophenyl)(4-fluorophenyl)methyl)-11-hydroxy-5,6-dihydro-10H-imidazo[2′,1′:3,4]pyrazino[1,2-b]pyridazin-10-one], for which the midpoint of the response, the EC50, lay at 72 nM.

Consider `O=c1cnn2c(c1O)-c1nccn1C[C@@H]2[C@@H](c1ccc(F)cc1)c1cccc(Cl)c1` [Example 31, (S)-6-((S)-(3-chlorophenyl)(4-fluorophenyl)methyl)-11-hydroxy-5,6-dihydro-10H-imidazo[2′,1′:3,4]pyrazino[1,2-b]pyridazin-10-one], for which the EC50 stood at 37 nM.

`O=c1cnn2c(c1O)-c1nccn1C[C@@H]2[C@@H](c1ccc(F)cc1)c1ccc(C(F)(F)F)cc1` [Example 32, (S)-6-((R)-(4-fluorophenyl)(4-(trifluoromethyl)phenyl)methyl)-11-hydroxy-5,6-dihydro-10H-imidazo[2′,1′:3,4]pyrazino[1,2-b]pyridazin-10-one]: the response was half-maximal at 250 nM (EC50).

`O=c1cnn2c(c1O)-c1nccn1C[C@@H]2[C@@H](c1ccc(F)cc1)c1cc(F)cc(F)c1` [Example 34, (S)-6-((S)-(3,5-difluorophenyl)(4-fluorophenyl)methyl)-11-hydroxy-5H-imidazo[2′,1′:3,4]pyrazino[1,2-b]pyridazin-10(6H)-one] returned an EC50 of 25 nM.

Consider `Cc1ccccc1[C@H](c1ccc(F)cc1Br)[C@H]1Cn2ccnc2-c2c(O)c(=O)cnn21` [Example 35, (S)-6-((R)-(2-bromo-4-fluorophenyl)(o-tolyl)methyl)-11-hydroxy-5,6-dihydro-10H-imidazo[2′,1′:3,4]pyrazino[1,2-b]pyridazin-10-one], for which the half-maximal effective concentration (EC50) came to 50 nM.

Turning to `O=c1cnn2c(c1O)-c1nccn1C[C@@H]2[C@H](c1cccc(F)c1)c1ccc(F)cc1Br` [Example 36, (S)-6-((R)-(2-bromo-4-fluorophenyl)(3-fluorophenyl)methyl)-11-hydroxy-5,6-dihydro-10H-imidazo[2′,1′:3,4]pyrazino[1,2-b]pyridazin-10-one], it took 27 nM to reach a half-maximal effect (EC50).

In the case of `CS(=O)(=O)c1cccc([C@H](c2ccc(F)cc2)[C@H]2Cn3ccnc3-c3c(O)c(=O)cnn32)c1` [Example 42, (S)-6-((S)-(4-fluorophenyl)(3-(methylsulfonyl)phenyl)methyl)-11-hydroxy-5,6-dihydro-10H-imidazo[2′,1′:3,4]pyrazino[1,2-b]pyridazin-10-one], the EC50 is 2800 nM.

For `N#Cc1ccccc1[C@H](c1ccc(F)cc1)[C@H]1Cn2ccnc2-c2c(O)c(=O)cnn21` [Example 44, 2-((S)-(4-fluorophenyl)((S)-11-hydroxy-10-oxo-5,6-dihydro-10H-imidazo[2′,1′:3,4]pyrazino[1,2-b]pyridazin-6-yl)methyl)benzonitrile], the EC50 came out at 300 nM.

`N#Cc1ccc([C@H](c2ccc(F)cc2)[C@H]2Cn3ccnc3-c3c(O)c(=O)cnn32)cc1` [Example 45, 4-((R)-(4-fluorophenyl)((S)-11-hydroxy-10-oxo-5,6-dihydro-10H-imidazo[2′,1′:3,4]pyrazino[1,2-b]pyridazin-6-yl)methyl)benzonitrile] yielded an EC50 of 42 nM.
